Reference: patent publication US20170052170A1, “NOVEL CELL LINES AND METHODS” (priority 2009, published 2017)

Target: T1, umami taste receptor (T1R1/T1R3) (Homo sapiens, UniProt Q7RTX0+Q7RTX1, C757R)
T1 construct: expressed in transfected cells; host or cells: HEK293T (ATCC CRL-11268)
T1 sequence (Q7RTX1 21-841): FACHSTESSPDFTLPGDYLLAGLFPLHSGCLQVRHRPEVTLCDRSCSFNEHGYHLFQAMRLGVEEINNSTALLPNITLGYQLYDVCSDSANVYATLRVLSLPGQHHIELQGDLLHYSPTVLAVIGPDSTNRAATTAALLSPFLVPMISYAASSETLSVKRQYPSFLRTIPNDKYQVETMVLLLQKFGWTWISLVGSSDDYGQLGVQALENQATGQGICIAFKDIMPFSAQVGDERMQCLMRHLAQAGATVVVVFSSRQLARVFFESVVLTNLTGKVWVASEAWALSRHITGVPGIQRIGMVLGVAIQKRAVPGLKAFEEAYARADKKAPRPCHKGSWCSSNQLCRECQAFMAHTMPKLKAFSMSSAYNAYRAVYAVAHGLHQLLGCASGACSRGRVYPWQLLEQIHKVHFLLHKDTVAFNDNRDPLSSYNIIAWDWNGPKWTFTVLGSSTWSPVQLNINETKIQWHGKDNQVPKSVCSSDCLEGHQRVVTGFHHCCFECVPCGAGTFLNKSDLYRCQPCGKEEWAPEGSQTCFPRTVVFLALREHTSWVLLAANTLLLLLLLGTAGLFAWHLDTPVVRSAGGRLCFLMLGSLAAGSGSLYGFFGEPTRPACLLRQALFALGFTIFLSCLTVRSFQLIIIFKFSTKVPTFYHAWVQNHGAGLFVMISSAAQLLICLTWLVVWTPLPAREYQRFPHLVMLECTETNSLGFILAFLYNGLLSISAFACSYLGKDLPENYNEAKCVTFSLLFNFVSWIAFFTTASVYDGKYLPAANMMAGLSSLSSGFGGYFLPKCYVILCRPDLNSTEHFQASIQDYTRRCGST
T1 sequence (Q7RTX0 21-852 C757R): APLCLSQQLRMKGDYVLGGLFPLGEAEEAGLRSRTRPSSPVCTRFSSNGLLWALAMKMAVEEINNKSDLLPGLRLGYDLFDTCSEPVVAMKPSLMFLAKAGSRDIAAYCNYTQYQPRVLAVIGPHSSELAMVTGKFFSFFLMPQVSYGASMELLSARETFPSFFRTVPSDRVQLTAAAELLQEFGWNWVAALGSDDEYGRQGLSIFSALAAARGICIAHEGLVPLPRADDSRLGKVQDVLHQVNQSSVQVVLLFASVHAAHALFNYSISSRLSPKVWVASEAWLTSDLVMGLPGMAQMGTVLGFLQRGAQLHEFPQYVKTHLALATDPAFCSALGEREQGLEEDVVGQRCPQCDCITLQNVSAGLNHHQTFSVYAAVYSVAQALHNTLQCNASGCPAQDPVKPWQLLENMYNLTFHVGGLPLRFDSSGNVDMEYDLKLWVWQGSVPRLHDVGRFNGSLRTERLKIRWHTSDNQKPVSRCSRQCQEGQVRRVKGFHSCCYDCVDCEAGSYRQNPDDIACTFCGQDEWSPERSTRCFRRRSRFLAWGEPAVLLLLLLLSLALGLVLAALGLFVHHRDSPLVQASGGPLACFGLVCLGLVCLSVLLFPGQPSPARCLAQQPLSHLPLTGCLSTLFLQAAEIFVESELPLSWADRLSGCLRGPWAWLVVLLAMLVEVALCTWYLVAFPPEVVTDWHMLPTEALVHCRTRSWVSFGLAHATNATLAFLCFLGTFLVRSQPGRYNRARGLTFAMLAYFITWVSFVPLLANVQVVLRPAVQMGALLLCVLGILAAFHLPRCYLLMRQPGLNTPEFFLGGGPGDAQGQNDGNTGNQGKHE
Assay: Umami cell-based calcium flux assay, HEK293T cells expressing T1R1, T1R3 and mouse Gα15
Conditions: FIG. 6; high density, coated plates, low glucose media, serum deprivation

SMILES: O=C(CO)[C@@H](O)[C@H](O)[C@H](O)CO [fructose]
- response of cells grown in the "Final" growth conditions: not
